The values below are quoted from earlier work in US9352019B2, “Using heat shock proteins to improve the therapeutic benefit of a non-vaccine treatment modality” (University of Connecticut Health Center, priority 2002, dated 2016).

This data set concerns CML. To be noted: Gleevec alone; Druker et al., 2002.

Each structure is given as a SMILES string. Where a name gives a salt, the structure may show the parent alone.

Consider `Cc1ccc(NC(=O)c2ccc(CN3CCN(C)CC3)cc2)cc1Nc1nccc(-c2cccnc2)n1` [Gleevec™, imatinib mesylate], for which the “patients achieving responses using these same criteria” value was “less than 10% of patients”.
